Data published in patent US20200291100A1, “TREATMENT OF AGE-RELATED AND MITOCHONDRIAL DISEASES BY INHIBITION OF HIF-1 ALPHA FUNCTION” (President and Fellows of Harvard College, priority 2012, published 2020).

How the values were obtained:
[1] = test system: SIRT1-tg mice; assay: DMOG treatment of SIRT1-tg mice, gastrocnemius readouts; assay type: in vivo, mouse; conditions: DMOG 300 mg/kg IP per day, 5 days
Experimental: Whole body SIRT1 overexpressor (SIRT1-tg) mice of 6 months of age were given interperitoneal (IP) injections of 300 mg DMOG/kg body weight per day or the equivalent volume of PBS for 5 consecutive days.
ATP content was measured with a commercial kit according to the manufacturer's instructions (Roche).
(§1) RNA from skeletal muscle tissue and C2C12 cells were extracted with RNeasy mini kit (Qiagen) according to the instructions and quantified using the NanoDrop 1000 spectrophotometer (Thermo Scientific). cDNA was synthesized with the iSCRIP cDNA synthesis kit (BioRad) using 600 ng of RNA. Quantitative RT-PCR reactions were performed using 1 μM of primers and LightCycler® 480 SYBR Green Master (Roche) on an LightCycler® 480 detection system (Roche). Calculations were performed by a comparative method (2-ΔCT) using 18S as an internal control. For mtDNA analysis, total DNA was extracted with DNeasy blood and tissue kit (Qiagen). mtDNA was amplified using primers specific for the mitochondrial cytochrome c oxidase subunit 2 (COX2) gene and normalized to genomic DNA by amplification of the ribosomal protein s18 (rps18) nuclear gene. Primers were designed using the IDT software (IDT) and the primer sequences can be found in Table 1.
Protein extracts from tissue or C2C12 cells were obtained by lysis in ice-cold lysis buffer (150 mM NaCl, 10 mM Tris HCl (pH 7.4), 1 mM EDTA, 1 mM EGTA, 1% Triton X-100, 0.5% NP-40) supplemented with a cocktail of protease and phosphatase inhibitors (Roche). Protein content was determined by the Bradford protein assay (Biorad), and 50 μg proteins were run on SDS-PAGE under reducing conditions. The separated proteins were then electrophoretically transferred to a polyvinylidene difluoride membrane (Perkin-Elmer). […] The immunostaining was detected using horseradish peroxidase-conjugated anti-rabbit or anti-mouse immunoglobulin for 1 h at room temperature.

[2] = test system: PGC-1α/β knockout myotubes; assay: HIF stabilizing compounds in PGC-1α/β knockout myotubes with or without SIRT1 overexpression; assay type: cell-based, mouse
Experimental: Next whether the ability of SIRT1 to regulate mitochondrial function independently of PGC-1α/β is mediated by HIF-1α was tested. […] Furthermore, cells expressing a mutant allele of HIF-1α that is constitutively stabilized due to the replacement of the two hydroxylated prolines with alanines (DPA) (FIG. 7A), caused genome asynchrony similar to hypoxia and treatment with DMOG (FIG. 7B).
Primary myoblasts cells were isolated from WT, SIRT1 KO (Price et al., 2012) and PGC-1α/β KO (Zechner et al., 2010) mice as previously described (Price et al., 2012). WT and PGC-1α/β KO primary myoblasts were plated and allowed to differentiate into myotubes by replacing the media with low glucose DMEM supplemented with 2% horse serum (Sigma-Aldrich) for 4 days. After the differentiation the cells were infected with empty vector or flag-SIRT1 adenovirus as described before (Gerhart-Hines et al., 2007). Media was replaced with fresh DMEM supplemented with 2% horse serum (Sigma-Aldrich) for an additional 48 hr and, after that the cells were harvested for the different assays as described. To investigate the role of HIF-1α in genome asynchrony, PGC-1α/β KO primary myotubes were treated for 12 hours with 1 mM DMOG (Sigma) or 10 μM DFO (Sigma), 24 h after infection with empty vector of flag-SIRT1 adenovirus or after 12 h treatment with […] NMN (Sigma).
as §1, with “Primers were designed using the IDT software (IDT) and the primer sequences can be found in Table 1.” left out
Protein extracts from tissue or C2C12 cells were obtained by lysis in ice-cold lysis buffer (150 mM NaCl, 10 mM Tris HCl (pH 7.4), 1 mM EDTA, 1 mM EGTA, 1% Triton X-100, 0.5% NP-40) supplemented with a cocktail of protease and phosphatase inhibitors (Roche). Protein content was determined by the Bradford protein assay (Biorad), and 50 μg proteins were run on SDS-PAGE under reducing conditions. […] The immunostaining was detected using horseradish peroxidase-conjugated anti-rabbit or anti-mouse immunoglobulin for 1 h at room temperature.

[3] = test system: SIRT1 KO mice; assay: NMN treatment of inducible SIRT1 KO mice; assay type: in vivo, mouse; conditions: skeletal muscle of SIRT1 KO versus WT mice
Experimental: Whole body adult-inducible SIRT1 knockout mice were treated with tamoxifen for 5 weeks and the efficiency of deletion in DNA from tail samples was determined by PCR. Animals were then maintained on regular diet for 4 months. For the fasting experiments, mice were fasted for 16 hrs prior to sacrifice. All animal care followed the guidelines and was approved by the Institutional Animal Care and Use Committees (IACUCs) at Harvard
The inducible SIRT1 KO mouse allowed the testing of the involvement of SIRT1 in the effects of NMN in vivo.
C57BL/6J mice of 6, 22, or 30 months of age were obtained from the National Institutes of Aging mouse aging colony. Additionally 22 months old caloric restricted mice were also obtained from the National Institutes of Aging mouse aging colony. EGLN1 KO, SIRT1 KO and SIRT1 OE mice were generated as previously described (Minamishima et al., 2008; Price et al., 2012). […]
RNA from skeletal muscle tissue and C2C12 cells were extracted with RNeasy mini kit (Qiagen) according to the instructions and quantified using the NanoDrop 1000 spectrophotometer (Thermo Scientific). cDNA was synthesized with the iSCRIP cDNA synthesis kit (BioRad) using 600 ng of RNA. Quantitative RT-PCR reactions were performed using 1 μM of primers and LightCycler® 480 SYBR Green Master (Roche) on an LightCycler® 480 detection system (Roche). […]

[4] = test system: 3- and 24-month-old C57BL/6J mice; assay: NMN treatment of 3- and 24-month-old mice, skeletal muscle readouts; assay type: in vivo, mouse; conditions: NMN 500 mg/kg IP, one week
Experimental: C57BL/6J mice of 3, 6, 22, 24, or 30 months of age were obtained from the National Institutes of Aging mouse aging colony. Mice were acclimated for at least one-week prior to sacrifice. 3, and 24-month-old mice were given interperitoneal (IP) injections of 500 mg NMN/kg body weight per day or the equivalent volume of PBS for 7 consecutive days at 5:00 pm and 7:00 am on day 8 and sacrificed 4 hr after last injection. All animal studies followed the guidelines of and were approved by the Harvard Institutional Animal Care and Use Committee
Skeletal muscle mitochondria were isolated as described previously (Frezza et al., Nat. Protoc. 2:287-295 (2007)). Mitochondrial membrane potential, cytochrome c activity and succinate dehydrogenase were determined as described (Brautigan et al., Methods Enzymol. 53:128-164 (1978); Rolo et al., Biochim. Biophys. Acta. 1637:127-132 ([…]); Singer, T. P., Methods Biochem. Anal. 22:123-175 (1974)). ATP content was measured with a commercial kit according to the manufacturer's instructions (Roche).
NAD^+ from C2C12 cells and skeletal muscle was quantified with a commercially available kit (BioVision) according to the manufacturer's instructions and as described before (Gomes et al., Biochim. Biophys. Acta. 1822:185-195 (2012)).
To test whether a decline in NAD^+ availability, invokes a pseudohypoxic response in muscle that inhibits mitochondrial function, we treated 3- and 24-month-old C57BL/6J mice for one week by intraperitoneal injection of nicotinamide mononucleotide (NMN) (500 mg/kg body weight), a compound that increases NAD^+ levels in a variety of tissues. After the treatment, levels of cellular NAD^+ in both the young and old mice were approximately 2-fold higher, such that the treated 24-month-old mice resembled the untreated 3-month-olds (FIG. 10A).

[5] = skeletal muscle, treated old (24-month) mice

SMILES | HIF-1α protein (immunoblot) [1] | effect on the increase in ATP levels observed in SIRT1-tg mice [1] | effect on the increase in expression of mitochondrial-encoded genes observed in SIRT1-tg mice [1] | expression of mitochondrial-encoded genes ([2]; DMOG compared to vehicle control, no SIRT1 overexpression) | HIF-1α protein (immunoblot) ([2]; DMOG versus DMSO (FIG. 21C)) | effect on induction of mitochondrial ETC genes by SIRT1 overexpression ([2]; SIRT1 adenovirus, 1 mM DMOG or 10 μM DFO, 12 hours) | ability of NMN to induce mitochondrially-encoded genes ([3]; qPCR) | ability of NMN to improve mitochondrial function ([3]; mitochondrial membrane potential (FIG. 10I)) | expression of HIF-1α target genes (PGK-1, Glut1, PKD1, VEGFa) ([4]; gastrocnemius, qPCR, 24-month-old mice) | HIF-1α in muscle (immunoblot) ([4]; gastrocnemius, 24-month-old mice) | levels of cellular NAD+ ([4]; gastrocnemius, young and old mice, versus untreated) | mitochondrial membrane potential ([4]; isolated skeletal muscle mitochondria, treated old (24-month) mice) | ATP levels [4, 5] | COX activity [4, 5]
COC(=O)CNC(=O)C(=O)OC [DMOG, dimethyloxaloylglycine] | increase HIF-1α | abolished the increase | abolished the increase | induced a decline | stabilizes HIF-1α protein | completely blocked | – | – | – | – | – | – | – | –
NC(=O)c1ccc[n+]([C@@H]2O[C@H](COP(=O)([O-])O)[C@@H](O)[C@H]2O)c1 [NMN, nicotinamide mononucleotide] | – | – | – | – | – | – | lost in animals lacking SIRT1 | lost in animals lacking SIRT1 | suppressed the expression | reversed the age-induced increase | approximately 2 fold | restoration of mitochondrial membrane potential to the levels of the young mice | increases | increases
